Experimental data: patent US7775469B2, “Purposeful movement of human migratory cells away from an agent source” (The General Hospital Corporation, priority 1999, dated 2010)

Tests used:
[1] = test system: peripheral T-cell subpopulations; assay: Semi-quantitative migration assay in methylcellulose, time lapse videomicroscopy; assay type: cell-based, human; details: SDF-1α loaded at fixed position, 10 μg/ml or 100 ng/ml
Protocol: In the third semi-quantitative migration assay, T-cell subpopulations (1×10^5 cells) were mixed with 0.5 ml of 0.5% methylcellulose (Stem Cell Technologies, Vancouver, BC) in sterile medium and plated in a 24 well plate.
[…]
To further validate the process of concentration dependent directional movement, a third transmigration assay was used. […] The movement of a gradient across the methylcellulose was documented in independent experiments by monitoring a dye front through the culture; a process not achieving equilibrium over the duration of our incubations.

[2] = test system: adult peripheral blood T-cell subpopulations; assay: Semi-quantitative transmigration assay with tissue culture insert as SDF-1α reservoir; assay type: cell-based, human
Protocol: The second semi-quantitative transmigration assay involved the use of a tissue culture insert (6.5 mm diameter, 0.45 μm pore size, polycarbonate membrane) (Millipore, Bedford Mass.). Adult peripheral blood T-cell subpopulations (1×10^5 cells) were plated into the wells of a 12-well tissue-culture dish in serum-free Iscove's medium. The tissue-culture plate was then incubated at 37° C. for 1 hour to allow the cells to settle evenly over the base of the well. […] The tissue culture insert was gently placed in the center of the well of the 12-well tissue-culture plate leaving a gap of 0.3 cm between the edge of the insert and the edge of the well of the tissue culture plate. The well with transwell insert was incubated for up to 18 hours at 37° C. on the heated stage of a microscope and viewed by time lapse videomicroscopy recording at 120 frames per hour or by Polaroid still photography. Maintenance of a gradient was assessed by loading of methylene blue into the insert and observing a preserved gradient of color over the incubation period.

[3] = test system: adult peripheral blood T-cell subpopulations; assay: Transwell transmigration assay with SDF-1α, adult peripheral blood T-cells; assay type: cell-based, human; details: for T-cells transmigrating in response to a positive gradient of SDF-1α: SDF-1α 100 ng/ml
Description: Peripheral blood was obtained from 12 healthy donors (age 25-40 years, median age 31). Peripheral blood mononuclear cells (PBMC) were obtained from peripheral blood using Ficoll-Hypaque. PBMC were stained with anti-CD4 (PE), anti-CD8 (PE), anti-CD45RA (FITC), anti-CD45RO (FITC) (Becton-Dickinson, San Jose, Calif.). The CD4^+CD45RA^+, CD4^+CD45RO^+ and CD8^+CD45RA^+ or CD8^+CD45RO^+ subpopulations of peripheral blood cells were sorted using a FACS vantage sorter (Becton-Dickinson, San Jose, Calif.). […] Sorted adult peripheral blood T-cell subpopulations were cultured overnight in serum-free Iscoves modified medium (GIBCO BRL, Gaithersburg, Md.), prior to their use in chemotaxis assays.
Three chemotaxis assays were used in this study. First, quantitative chemotaxis transmigration assays were performed using a transwell system (Corning Inc., NY) (6.5 mm diameter, 5 μm pore size, polycarbonate membrane) as previously described^13. Purified T-cell and thymocyte subpopulations (5×10^4 cells) were added to the upper chamber of each well in a total volume of 150 μl of IMDM alone. […] Cells were pretreated with pertussis toxin (PTX) 100 ng/ml for 1 hour, genistein (1 μg/ml for 20 minutes), herbimycin (1 μM for 20 minutes) or wortmannin (1 μM for 20 minutes) (Sigma Chemical Company, St Louis, Mo.) in a tissue culture incubator at 37° C. and 5% CO2 prior to their addition to the upper chambers of the transwells in selected experiments.
(§1) Transwells prepared in this way were incubated for 3 hours at 37° C., 5% CO2 incubator. Cells were harvested from the lower chamber after 3 hours and cell counts, immunophenotype and CXCR-4 chemokine receptor expression determined.

C57/B6 mice = assay: T-cell infiltration into the site of a secondary immune response (Ova challenge, peritoneal lavage) after SDF-1; assay type: in vivo, mouse; details: 24 hours
Protocol: C57/B6 mice (Jackson Laboratories, ME) were obtained and primed subcutaneously with 100 μg chicken ovalbumin (Sigma) containing less than 0.01% LPS by the limulus assay and dissolved in 100 μl of Complete Freund's Adjuvant (CFA) (Sigma). Three days ova-primed mice were challenged by intraperitoneal (IP) injection with 100 μg of ovalbumin (Ova) dissolved in 250 μl of ddH20. […] These mice were then euthanized 24 hours following the second IP injection and peritoneal lavage with 5 mls of PBS performed with direct visualization of the peritoneal sac and its contents in order to avoid peripheral blood contamination. Peritoneal fluid cells harvested in this way contained <0.1% red blood cells. Three groups of control mice were used. In the first, C57/B6 mice were euthanized prior to Ova-priming and a peritoneal lavage performed. The second group of control mice were primed subcutaneously and challenged with Ova intraperitoneally as above and then euthanized 24 hours later. […]
Cells harvested from the peritoneal fluid were counted with a hemocytometer and their viability determined by Trypan blue exclusion and the total viable nucleated cell count per ml of peritoneal fluid was determined. […] The proportion of T-cells of each subpopulation (CD3^+, CD3^+CD4^+, CD3^+CD8^+) was determined as a percentage of the total nucleated cell fraction in the peritoneal fluid. […]

[4] = test system: adult peripheral blood T-cell subpopulations; details: reported in the literature; cited from earlier work
[5] = test system: CD4+CD45RA+ and CD8+CD45RA+ fetal blood T-cells; assay: Transwell transmigration of fetal blood T-cells to SDF-1α; assay type: cell-based, human
Description: (§2) Human fetal thymi and peripheral blood samples were obtained from 16 to 22 week abortuses according to Institutional Review Board approved guidelines. Thymi were physically disaggregated and mononuclear cell suspensions generated. Thymocytes were stained with CD8 (FITC), CD3 (PE) and CD4 (APC) and sorted into purified subpopulations of triple negative immature thymocytes (TN) (CD3^−, CD4^−, CD8^−) and mature double positive (DP) (CD4^+CD8^+) and single positive (SP) thymocytes (CD3^+CD4^+ or CD3^+CD8^+) by cell sorting. Fetal blood mononuclear cells (FBMC) were prepared from fetal blood using Ficoll-Hypaque as above. FBMC were labeled with CD8 (FITC), CD3 (PE), CD4 (APC) and anti-CD45RA (FITC). Purified populations of CD4^+CD45RA^+ and CD8^+CD45RA^+ T-cells were sorted cultured overnight in serum free Iscoves modified medium prior to use in chemotaxis assays.
(§3) Three chemotaxis assays were used in this study. First, quantitative chemotaxis transmigration assays were performed using a transwell system (Corning Inc., NY) (6.5 mm diameter, 5 μm pore size, polycarbonate membrane) as previously described^13. […]
as §1

[6] = test system: TN, DP and SP subpopulations of fetal thymocytes; assay: Transwell transmigration of fetal thymocytes to SDF-1α; assay type: cell-based, human
Description: as §2, §3, §1

Substance: SDF-1α
- direction of T-cell movement in methylcellulose [1]: away from high concentrations of SDF-1α and towards low concentrations
- direction of T-cell migration relative to insert ([2]; insert contained 10 μg/ml SDF-1α): migrate towards the source of SDF-1α and a second population to migrate away
- direction of T-cell migration relative to insert ([2]; insert contained SDF-1α at 100 ng/ml): Only movement toward the insert was seen
- concentration of maximal fugetaxis ([3]; CD4+CD45RA+ cells): 10 µg/mL
- T-cells transmigrating in response to a positive gradient of SDF-1α ([3]; CD4+CD45RA+ cells): 85%
- T-cells transmigrating in response to a positive gradient of SDF-1α ([3]; CD4+CD45RO+ cells): 79%
- T-cells transmigrating in response to a positive gradient of SDF-1α ([3]; CD8+CD45RA+ cells): 97%
- T-cells transmigrating in response to a positive gradient of SDF-1α ([3]; CD8+CD45RO+ cells): 51%
- concentration of maximal fugetaxis ([3]; CD8+CD45RO+, CD8+CD45RA+ and CD4+CD45RO+ cells): 1 µg/mL
- concentration of peak chemoattractant activities ([3]; all four adult T-cell subpopulations): 100 ng/mL
- decline of chemotaxis toward SDF-1α ([3]; concentration increased from 100 ng/ml to 10 μg/ml, all cells): ≤ 27 fold
- concentration at which agent acts as potent fugetactic agent to immune cells ([3]; mature T cells): higher than 200 ng/ml
- T cell accumulation at site of Ova challenge (C57/B6 mice; SDF-1 low dose (100 ng/ml) IP, vs sham or PBS): No significant differences
- T cell infiltration at site of Ova challenge (C57/B6 mice; high dose SDF-1 (5 μg/ml) IP, p=0.02 vs controls): blunted significantly below that of controls
- concentration at which reported as lymphocyte chemoattractant [4]: lower than 100 ng/ml
- concentration of maximal chemotactic responses [5]: 100 ng/mL
- cell movement in response to SDF-1α ([6]; TN, DP, SP fetal thymocytes and fetal blood T-cells): minimal cell movement in response to SDF-1α except in the most immature TN subset
- fugetaxis above background chemokinesis ([6]; thymocyte subpopulations, even at 1 μg/ml and 10 μg/ml): In no thymocyte subpopulation was fugetaxis noted above background chemokinesis levels
